Source: patent US10253002B2, “Compounds and methods of treating infections” (Neoculi Pty Ltd., priority 2013, dated 2019)
Values after ≈ are worked out from the molar mass of the structure shown. Values joined by “and” are separate entries in the source; they are usually repeats but may differ in a detail not shown here. Identical values can stand only once.

Experiments:
Experiment in all cases: Broth microdilution MIC, Example 7 (NCL812 and analogues)
[1] = tested on: MRSA; assay type: cell-based, Staphylococcus aureus; conditions: for activity against MRSA among analogues: MIC testing, two MRSA strains
Method: (§1) Minimum inhibitory concentrations (μg/ml) were determined using the broth microdilution method recommended by the Clinical and Laboratory Standards Institute (CLSI). MIC breakpoints were determined by visual assessment and then confirmed using an ELISA plate reader, measuring absorbance levels at 600 nm. Bacterial growth (turbidity) in the wells with antimicrobial was compared with the amount of growth (turbidity) in the growth-control well (containing no antimicrobial). All isolates were tested in duplicate, if there was a difference of greater than one two-fold dilution in the results, the test was repeated a third time. The purity of the isolates was closely monitored during testing by subculturing the prepared bacterial inoculum onto SBA (sheep blood agar). […] The MIC50, MIC20 and MIC range (minimum and maximum) were calculated for each of the bacterial groups.
(§2) MICs were determined against two MRSA strains, two VRE strains and one strain each of E. coli and Pseudomonas aeruginosa.

[2] = tested on: VRE; assay type: cell-based, Enterococcus spp.; conditions: for activity against VRE among analogues: MIC testing, two VRE strains
Method: as §1, §2

[3] = tested on: Escherichia coli; assay type: cell-based; conditions: 24 hours
[4] = tested on: Pseudomonas aeruginosa; assay type: cell-based; conditions: 24 hours
[5] = MRSA 1, 24 hours, duplicate lines per compound
[6] = MRSA 2, 24 hours, duplicate lines per compound
[7] = VRE 1, 24 hours, duplicate lines per compound
[8] = VRE 2, 24 hours, duplicate lines per compound
[9] = E. coli, duplicate lines per compound
[10] = P. aeruginosa, duplicate lines per compound
[11] = isolate MRSA 1, 24 hours, 1st and 2nd replicate rows
[12] = isolate MRSA 2, 24 hours, 1st and 2nd replicate rows
[13] = isolate VRE 1, 24 hours, 1st and 2nd replicate rows
[14] = isolate VRE 2, 24 hours, 1st and 2nd replicate rows

SMILES	MIC (μg/ml) at 24 hours, MRSA 1 [1, 5] [µg/mL]	MIC (μg/ml) at 24 hours, MRSA 2 [1, 6]	MIC (μg/ml) at 24 hours, VRE 1 [2, 7] [µg/mL]	MIC (μg/ml) at 24 hours, VRE 2 [2, 8]	MIC (μg/ml) at 24 hours, E. coli [3, 9] [µg/mL]	MIC (μg/ml) at 24 hours, P. aeruginosa [4, 10] [µg/mL]	activity against MRSA among analogues [1]	activity against VRE among analogues [2]	also measured
Cl.N=C(NN=Cc1cc(Br)co1)NN=Cc1cc(Br)co1 [NCL 133]	>128	>128 µg/mL	>128	>128 µg/mL	>128	>128			
Cl.N=C(N/N=C/C=C/c1ccccc1)N/N=C/C=C/c1ccccc1 [NCL096]	>128	>128 µg/mL	>128	>128 µg/mL	>128	>128			
Cl.N=C(N/N=C/c1c(F)c(F)c(F)c(F)c1F)N/N=C/c1c(F)c(F)c(F)c(F)c1F [NCL 128]	>128	>128 µg/mL	>128	>128 µg/mL	>128	>128			
OC/C(=N\Nc1cc(N/N=C(\CO)c2ccc(Cl)cc2)ncn1)c1ccc(Cl)cc1 [NCL180]							greatest activity	greatest activity	VRE ([2]; bioassay ranking, VRE): 32 µg/mL
COc1ccccc1/C=N/NC(=N)N.Cl [NCL034]									MIC (μg/ml) at 24 hours, MRSA 1 [1, 11]: >128 µg/mL; MIC (μg/ml) at 24 hours, MRSA 2 [1, 12]: >128 µg/mL; MIC (μg/ml) at 24 hours, VRE 1 [2, 13]: >128 µg/mL; MIC (μg/ml) at 24 hours, VRE 2 [2, 14]: >128 µg/mL; MIC (μg/ml) at 24 hours, E. coli ([3]; 1st and 2nd replicate rows): >128 µg/mL; MIC (μg/ml) at 24 hours, P. aeruginosa ([4]; 1st and 2nd replicate rows): >128 µg/mL
COc1cc(/C=N/NC(=N)N/N=C/c2ccc(O)c(OC)c2)ccc1O.Cl [NCL117]							greatest activity	greatest activity	
Cl.N=C(N)NN=C(C(=O)O)c1ccccc1 [NCL192]							greatest activity	greatest activity	
Cl.N=C(NN=Cc1cccc(Br)c1)NN=Cc1cccc(Br)c1 [NCL 131]	>128	>128 µg/mL	4	>128 µg/mL	>128	>128			
CSc1ccc(C=NNC(=N)NN=Cc2ccc(SC)cc2)cc1.Cl [NCL 140]		16 µg/mL and 32 µg/mL		8 µg/mL and 16 µg/mL	>128	>128			
COc1ccc(/C=N/Nc2cc(N/N=C/c3ccc(OC)cc3)nc(N)n2)cc1 [NCL230]									MIC (μg/ml) at 24 hours, MRSA 1 ([1]; MRSA 1, 24 hours): >128 µg/mL; MIC (μg/ml) at 24 hours, MRSA 2 ([1]; MRSA 2, 24 hours): >128 µg/mL; MIC (μg/ml) at 24 hours, VRE 1 ([2]; VRE 1, 24 hours): >128 µg/mL; MIC (μg/ml) at 24 hours, VRE 2 ([2]; VRE 2, 24 hours): >128 µg/mL; MIC (μg/ml) at 24 hours, E. coli ([3]; E. coli): >128 µg/mL; MIC (μg/ml) at 24 hours, P. aeruginosa ([4]; P. aeruginosa): >128 µg/mL
Nc1nc(N/N=C/c2ccccc2Cl)cc(N/N=C/c2ccccc2Cl)n1 [NCL205]							greatest activity	greatest activity	MIC (μg/ml) at 24 hours, MRSA 1 ([1]; MRSA 1, 24 hours): 4 µg/mL and 8 µg/mL; MIC (μg/ml) at 24 hours, MRSA 2 ([1]; MRSA 2, 24 hours): 4 µg/mL and 8 µg/mL; MRSA ([1]; bioassay ranking, MRSA): 6 µg/mL; MIC (μg/ml) at 24 hours, VRE 1 ([2]; VRE 1, 24 hours): 64 µg/mL (≈ 160 µM); MIC (μg/ml) at 24 hours, VRE 2 ([2]; VRE 2, 24 hours): >128 µg/mL; MIC (μg/ml) at 24 hours, E. coli ([3]; E. coli): >128 µg/mL; MIC (μg/ml) at 24 hours, P. aeruginosa ([4]; P. aeruginosa): >128 µg/mL
Cl.N=C(N/N=C/c1ccc(Cl)cc1Cl)N/N=C/c1ccc(Cl)cc1Cl [NCL 127]	>128	>128 µg/mL	>128	>128 µg/mL	>128	>128			
Cl.N=C(NN=Cc1csc2ccc(Cl)cc12)NN=Cc1csc2ccc(Cl)cc12 [NCL 141]	>128	>128 µg/mL	16	>128 µg/mL	>128	>128			
Cl.N=C(N)N/N=C/c1ccccc1F [NCL016]									MIC (μg/ml) at 24 hours, MRSA 1 [1, 11]: >128 µg/mL; MIC (μg/ml) at 24 hours, MRSA 2 [1, 12]: >128 µg/mL; MIC (μg/ml) at 24 hours, VRE 1 [2, 13]: >128 µg/mL; MIC (μg/ml) at 24 hours, VRE 2 [2, 14]: >128 µg/mL; MIC (μg/ml) at 24 hours, E. coli ([3]; 1st and 2nd replicate rows): >128 µg/mL; MIC (μg/ml) at 24 hours, P. aeruginosa ([4]; 1st and 2nd replicate rows): >128 µg/mL
Cl.N=C(NN=Cc1cccc(C(=O)O)c1)NN=Cc1cccc(C(=O)O)c1 [NCL098]	>128	>128 µg/mL	>128	>128 µg/mL	>128	>128			
CC(Nc1cc(Cl)nc(N)n1)c1ccccc1 (stereo not shown) [NCL182]							greatest activity	greatest activity	
C/C(=N\Nc1cc(N/N=C(\C)c2ccc(Cl)cc2)ncn1)c1ccc(Cl)cc1.Cl [NCL185]							greatest activity	greatest activity	
Clc1ccc(/C=N/Nc2cc(N/N=C/c3ccc(Cl)cc3)ncn2)cc1 [NCL181]							greatest activity	greatest activity	
CC(Nc1cnc(NC(C)c2ccc(Cl)cc2)cn1)c1ccc(Cl)cc1 (stereo not shown) [NCL186]							greatest activity	greatest activity	
